Reference: patent publication US12195437B2, “Lipophenolic flavonoid derivatives useful to reduce carbonyl and oxidative stresses (COS)” (Centre National de la Recherche Scientifique (CNRS), priority 2018, dated 2025)

Legend:
Format in all cases: cell-based
[1] = tested on: ARPE-19 cells; assay: Cytotoxicity of lipophenols on ARPE-19 cells (MTT); conditions: 24 h; for toxicity (in words): concentrations up to 160 μM; for cell survival: compared to untreated cells (100%)
Experimental: (§1) Cell viability was determined by MTT colorimetric assay. Cells were incubated for 2 h with MTT reagent (0.5 mg/mL). During this incubation time, dehydrogenases of living cells reduced MTT to insoluble purple formazan, which was then dissolved in DMSO. The absorbance at 570 nm and 655 nm of individual wells was measured using a microplate reader (BioRad 550). The percentage of viable cells was calculated as [(OD570 sample−OD655 sample)/(OD570 control−OD655 control)]×100%.
ARPE-19 cells were plated into 96-well plates (4×10^4 cells/well) and cultured for 24 h to reach confluence before lipophenol treatment. […] Control cells were incubated with DMSO (0.2%). The viability of the cells was determined using a MTT colorimetric assay. All samples are expressed as percentage of viability compared to non-treated control cells (normalized at 100% survival).
Results on the measurement of lipophenol toxicity will be discussed in % cell survival at a given lipophenol concentration compared to untreated cells. […] Any concentration of lipophenol resulting in cell survival of less than 5% (zero survival) will be considered a highly toxic concentration.

[2] = tested on: ARPE-19 cells; assay: Protection of lipophenols against ROS production (DCFDA probe, H2O2); conditions: H2O2 600 μM; for increase in ROS compared to non-stressed cells: from 20 μM lipophenol
Experimental: (§2) ARPE-19 cells (cells from the retinal pigment epithelium) were obtained from ATCC, and were grown following the instructions in Dulbecco's Modified Eagle's Medium (DMEM)/Ham F12 (GIBCO) containing 10% v/v fetal bovine serum (FBS) and 1% v/v penicillin/streptomycin under a humidified air (95%)/CO2 (5%) atmosphere at 37° C. For experimental cell seeding and sub-culturing, cells were dissociated with 0.25% trypsin-EDTA, re-suspended in the culture medium and then plated at 1-3×10^5 cells/mL.
Reactive oxygen species (ROS) were measured in ARPE-19 cells with the probe DCFDA. The cell permeant reagent DCFDA is deacetylated by cellular esterases to […], which can be oxidized by ROS into the fluorophore 2′,7′-dichlorofluorescein (DCF). ARPE-19 cells were plated into black, opaque bottom 96-well plates (4×10^4 cells/well) and cultured for 24 h to reach confluence before drug treatment. The cell cultures were incubated with 2 μM of DCFDA for 45 min in DMEM/F12 medium without phenol red+1% FBS. The cells were rinsed and incubated with medium containing lipophenols at different concentrations (0-80 μM) for 1 h. Then H2O2 was added to a final concentration of 600 μM for 4 h, followed by the measurement of DCF production by fluorescence spectroscopy with excitation wavelength at 485 nm and emission wavelength at 535 nm. Control cells were incubated with DMSO (0.2%)±DCFDA±H2O2. All samples are expressed as percentage of ROS production compared to non-oxidized control cells (normalized at 100% of ROS production).
The lowest percentages of increase will therefore be representative of the most protective derivatives.

[3] = tested on: ARPE-19 cells; assay: Protection of lipophenols against all-trans-retinal toxicity (anti-carbonyl stress activity, MTT); conditions: trans-retinal 15 μM; for anti-carbonyl stress activity (in words): up to 80 μM lipophenol; for cell survival gain (anti-carbonyl stress activity): compared to stressed untreated cells
Experimental: as §2, §1
ARPE-19 cells were plated into 96-well plates (4×10^4 cells/well) and cultured for 24 h to reach confluence before lipophenol treatment. The cell cultures were treated with serum free medium containing lipophenols at different concentrations (0-80 μM) for 1 h. Then all-trans-retinal was added to a final concentration of 15 μM for 4 h, before rinsing with medium. Control cells were incubated with DMSO (0.2%)±all-trans-retinal. The cell viability was determined 16-20 h later using a MTT colorimetric assay. All samples are expressed as percentage of viability compared to non-treated and exposed to all-trans-retinal control cells. Non-treated and non-exposed to all-trans-retinal control cells are normalized at 100% survival.
The results on the measurement of anti-carbonyl stress activity will be discussed in % cell survival gain compared to cells stressed by trans-retinal (at 15 μM) and not treated with lipophenols. Any survival gain greater than +5% will be considered as a proven anti-carbonyl stress activity.

[4] = tested on: ARPE-19 cells; assay: Protection of lipophenols against photoactivated A2E toxicity (MTT); conditions: A2E 20 μM, blue light
Experimental: as §2, §1
ARPE-19 cells were plated into 96-well plates (4×10^4 cells/well) and cultured for 24 h to reach confluence before lipophenol treatment. The cell cultures were treated with serum free DMEM/F12 medium without phenol red containing lipophenols at different concentrations (0-80 μM) for 1 h. Then A2E was added to a final concentration of 20 μM for 6 h, before rinsing with medium. Control cells were incubated with DMSO (0.2%)+A2E. Cells were exposed to intense blue light (4600 LUX) for 30 min to induce phototoxicity of A2E and incubated at 37° C. The cell viability was determined 16-20 h later using a MTT colorimetric assay. All samples are expressed as percentage of viability compared to non-treated and exposed to A2E control cells. Non-treated and non-exposed to A2E control cells are normalized at 100% survival.
Photoactivation of A2E leads to its oxidation and can generate cytotoxic derivatives, in particular carbonyl derivatives responsible for carbonyl stress. Results on lipophenol protection against photoactivated A2E toxicity will be discussed in % cell survival gain compared to cells stressed by A2E and not treated by lipophenols. This additional evaluation was not performed for all synthesized lipophenolic derivatives but only a selection of them to discuss the results obtained.

## CC(C)Oc1cc(O)c2c(c1)O[C@H](c1ccc(O)c(O)c1)[C@@H](O)C2 [C-70iP, reference compound]
[1]
  toxicity (in words): no toxicity
[2]
  increase in ROS compared to non-stressed cells: 0%
[3]
  anti-carbonyl stress activity (in words): no anti-carbonyl stress activity

## CC/C=C\C/C=C\C/C=C\CCCCCCCC(=O)Oc1c(-c2ccc(O)c(O)c2)oc2cc(OC(C)C)cc(O)c2c1=O [Q-3ALA-7OiP, (9Z,12Z,15Z)-5-hydroxy-2-(3,4-dihydroxyphenyl)-7-isopropoxy-4-oxo-4H-chromen-3-yl octadeca-9,12,15-trienoate]
[1]
  toxicity (in words): no toxicity
[4]; 80 μM lipophenol, compared to stressed untreated cells
  cell survival gain against photoactivated A2E: +77%
[3]; 80 μM lipophenol
  cell survival gain (anti-carbonyl stress activity): +29%

## CC(C)Oc1cc(O)cc2c1C[C@H](O)[C@@H](c1ccc(O)c(O)c1)O2 [C-50iP, reference compound]
[1]
  toxicity (in words): no toxicity
[2]
  increase in ROS compared to non-stressed cells: 0%
[3]
  anti-carbonyl stress activity (in words): no anti-carbonyl stress activity

## CC(C)Oc1cc(O)c2c(=O)c(O)c(-c3ccc(O)c(O)c3)oc2c1 [Q-70iP, reference compound]
[1]
  concentration from which cell survival is zero (highly toxic concentration): 40 µM
  toxicity (in words): very important cytotoxicity even at low concentration
[2]; 20 μM lipophenol
  gain of % of ROS production compared to non-stressed cells: +31%
[3]
  anti-carbonyl stress activity (in words): did not show anti-carbonyl stress potency

## CCCCC/C=C\C/C=C\CCCCCCCC(=O)Oc1c(-c2ccc(O)c(O)c2)oc2cc(O)cc(O)c2c1=O [Q-3LA, (9Z,12Z)-2-(3,4-dihydroxyphenyl)-5,7-dihydroxy-4-oxo-4H-chromen-3-yl octadeca-9,12-dienoate]
[1]; 80 μM lipophenol
  cell survival: 156%
[1]; 160 μM lipophenol
  cell survival: 124%
[4]; from 60 μM lipophenol
  cell survival gain against photoactivated A2E: +48%
[3]; 20 μM lipophenol
  cell survival gain, maximum protection: +9%

## CCCCC/C=C\C/C=C\CCCCCCCC(=O)Oc1c(-c2ccc(O)c(O)c2)oc2cc(OC(C)C)cc(O)c2c1=O [Q-3LA-7OiP, (9Z,12Z)-5-hydroxy-2-(3,4-dihydroxyphenyl)-7-isopropoxy-4-oxo-4H-chromen-3-yl octadeca-9,12-dienoate]
[1]; 160 μM lipophenol
  cell survival: 153%
[4]; from 40 μM lipophenol (plateau)
  cell survival gain against photoactivated A2E: +86%
[3]; 80 μM lipophenol
  cell survival gain (anti-carbonyl stress activity): +38%

## (+)-catechin [reference compound]
[2]
  increase in ROS compared to non-stressed cells: 0%
[3]
  anti-carbonyl stress activity (in words): no anti-carbonyl stress activity

## CC/C=C\C/C=C\C/C=C\C/C=C\C/C=C\C/C=C\CCC(=O)Oc1c(-c2ccc(O)c(O)c2)oc2cc(OC(C)C)cc(O)c2c1=O [Q-3DHA-7OiP, (4Z,7Z,10Z,13Z,16Z,19Z)-5-hydroxy-2-(3,4-dihydroxyphenyl)-7-isopropoxy-4-oxo-4H-chromen-3-yl docosa-4,7,10,13,16,19-hexaenoate]
[1]
  toxicity (in words): no toxicity
[4]; as early as 20 μM lipophenol (plateau)
  cell survival gain against photoactivated A2E: +62%
[3]; 80 μM lipophenol
  cell survival gain (anti-carbonyl stress activity): +29%

## CC/C=C\C/C=C\C/C=C\CCCCCCCC(=O)Oc1c(-c2ccc(O)c(O)c2)oc2cc(O)cc(OC(C)C)c2c1=O [Q-3ALA-5OiP, (9Z,12Z,15Z)-7-hydroxy-2-(3,4-dihydroxyphenyl)-5-isopropoxy-4-oxo-4H-chromen-3-yl octadeca-9,12,15-trienoate]
[1]
  concentration from which cytotoxicity is induced: 60 µM
[3]; 40 μM lipophenol
  cell survival gain (anti-carbonyl stress activity): +24%

## CC(C)Oc1cc(O)cc2oc(-c3ccc(O)c(O)c3)c(O)c(=O)c12 [Q-50iP, reference compound]
[1]; 160 μM lipophenol
  cell survival: 72%
[1]
  toxicity (in words): almost no toxicity
[2]; 80 μM lipophenol
  gain of % of ROS production compared to non-stressed cells: +46%
[3]
  anti-carbonyl stress activity (in words): did not show anti-carbonyl stress potency

## CCCCC/C=C\C/C=C\CCCCCCCC(=O)O[C@H]1Cc2c(O)cc(OC(C)C)cc2O[C@@H]1c1ccc(O)c(O)c1 [C-3LA-7OiP, (9Z,12Z)-(2R,3S)-2-(3,4-dihydroxyphenyl)-5-hydroxy-7-isopropoxy-chroman-3-yl octadeca-9,12-dienoate]
[1]
  concentration from which cell survival is zero (highly toxic concentration): 80 µM
[2]; 80 μM lipophenol
  gain of % of ROS production compared to non-stressed cells: +37%
[3]; 40 μM lipophenol
  cell survival gain (anti-carbonyl stress activity): +27%
